Literature values in patent publication US11266683B2, “Antimicrobial and cleansing composition consisting of a polymeric biguanide and EDTA” (priority 2016, dated 2022).
Read-outs that look alike come from different tables or passages of the source.

Compound	effect on fibroblasts (fibroblasts; at higher concentration)	effect on fibroblasts (fibroblasts; at lower concentration)	risk of the bacterium developing resistance (S. aureus)
[H]/N=C(\N/C(=N/[H])NCCCCCCNC(=N)NC(=N)Nc1ccc(Cl)cc1)Nc1ccc(Cl)cc1 [chlorhexidine]	causes necrosis	induces apoptosis	
polyhexamethylene biguanide [PHMB]			very low
